The conditions of data set [1]: published rat feeding study, independent from intake; cited from earlier work.
Data set [2] is described as follows: Tryptophan release / dissolution in simulated gastric and intestinal fluid. Conditions: 30 mg powder in 22 mL FaSSGF, 37° C. In kind it is physicochemical.
Description: A sample of 200 mg of tryptophan-containing granules was suspended in 22 mL fasted-state simulated gastric fluid (FaSSGF) at 37° C. and agitated (shaker ST5 from CAT, Germany). FaSSGF was prepared by dissolving 1 g of NaCl (Sigma-Aldrich) in 450 mL of water, adding 30 mg of SIF powder (biorelvant.com), adjusting the pH to 2.0 with 0.1 N HCl (Sigma-Aldrich) and adding water to a final volume of 500 mL.
A sample of 200 mg of tryptophan-containing granules was suspended in 22 mL fasted-state simulated intestinal fluid (FaSSIF) at 37° C. and agitated (shaker ST5 from CAT, Germany).
30 mg of tryptophan powder were suspended in 22 mL FaSSGF at 37° C. and agitated (shaker ST5 from CAT, Germany). Aliquots were removed at time intervals of 5 min, and tryptophan concentration was quantified using absorption measurement at a wavelength of 280 nm in a NanoDrop® 2000 device (Thermo Scientific, USA).

This is an account of results in patent US11311570B2, “Method of inducing satiety” (PERORA GMBH, priority 2014, dated 2022).

As to `CCCCCCCCCCCCCCCCCC(=O)OCC(COC(=O)CCCCCCCCCCCCCCCCC)OC(=O)CCCCCCCCCCCCCCCCC` [tristearin], in data set [1], the “true digestibility of stearic acid from tristearin” value is 0.15 g/g.
As for `N[C@@H](Cc1c[nH]c2ccccc12)C(=O)O` [tryptophan powder, L-Tryptophan], the “time after which quantitatively dissolved” value in data set [2] is 10 min.
